The data set is described as follows: Solubility of biocide in solvent system (A1+A2). The data set is classed as physicochemical. How it is done: General method of preparing emulsifiable composition (C): Component (A1) and component (A2) were mixed and heated to a temperature in the range of 20° C. to 100° C. to obtain a solution. Respective amount of the biocide was charged to the above solution at a temperature in the range of 20° C. to 100° C. to obtain the solution containing biocide. Emulsifier and other optional ingredients were charged o to the above biocide containing solution to obtain the emulsifiable composition (C).

One molecule from patent publication US20250008950A1, “BIOCIDE COMPOSITIONS” (BASF SE, priority 2021, published 2025) can be followed below.

For `CO/C=C(/C(=O)OC)c1ccccc1Oc1cc(Oc2ccccc2C#N)ncn1` [Azoxystrobin], the “Solubility wt. % in total (C)” value reads like this: (solvent system Acetophenone (A1) / 2-Methoxy-4-Methylphenol (A2), molar ratio A1:A2 1:1) 27 wt. %; (solvent system Acetophenone (A1) / 2-sec-Butylphenol (A2), molar ratio A1:A2 1:1) 32 wt. %; (solvent system Acetophenone (A1) / Phenyl acetic acid (A2), molar ratio A1:A2 2:1) 25 wt. %; (solvent system Acetophenone (A1) / Thymol (A2), molar ratio A1:A2 1:1) 28 wt. %.
